The results in this text go back to patent US20160038519A1, “ADMINISTRATION OF KARENITECIN FOR THE TREATMENT OF ADVANCED OVARIAN CANCER, INCLUDING CHEMOTHERAPY-RESISTANT AND/OR THE MUCINOUS ADENOCARCINOMA SUB-TYPES” (BioNumerik Pharmaceuticals, Inc., priority 2014, published 2016).

Series [1] is described as follows: Toxicology study of single daily doses given orally and intravenously for five consecutive days. It counts as in vivo. Particulars: oral and i.v. single daily doses.
A short description of series [2]: Lactone stability in humans. The class given is in vivo, human.
The subject of a further series is JHOM2B Cell Line. Briefly: SRB cytotoxicity assay, JHOM2B. The settings on record: Homo sapiens. The class given is cell-based, human. Here is the method:
In vitro studies were conducted in human mucinous ovarian cancer cell lines including JHOM2B, OMC3, and COV644. In one series of experiments, the dose response curves for BNP1350 (also known as Karenitecin), SN-38 (Irinotecan), and Topotecan were obtained and IC50 values were determined. In a second series of experiments, the effect of BNP7787 (2,2′-dithio-bis-ethane sulfonate; Tavocept) on BNP1350-induced cytotoxicity at selected BNP1350 concentrations was examined.
The JHOM2B and OMC3 cell lines were purchased from Riken Cell Bank (Japan). The COV644 cell line was purchased from SigmaAldrich. Cells were maintained as monolayered cultures in T-75 flasks and then seeded to microtiter plate wells for experiments. Population doubling-times for these three cell lines were long (i.e., exceeding 40 hours, and for some of the cell lines approaching 96 hours); therefore, the Applicants conducted initial pilot experiments and determined optimal seeding density to obtain A570 values in untreated controls that would fall within the linear range of the SRB assay after seven (7) total days of cell growth. JHOM2B cells were cultured in DMEM:F12 (1:1)+0.1 mM non-essential amino acids (NEAA)+10% FBS and were seeded at 6,000 cells per well. OMC3 cells were cultured in HamF12+10% FBS and were seeded at 8,000 cells per well. COV644 cells were cultured in DMEM+2 mM glutamine+10% FBS and were seeded at 6,000 cells per well.
The cells were manipulated in a Microzone laminar flow hood traditionally used for maintaining aseptic environments around automated instrumentation such as microplate robots, and the like. Cells were grown and maintained at 37° C. in a humidified atmosphere containing 5% CO2 in a water jacketed cell culture incubator (Forma Scientific). Cells were counted using a ViCell counter (Beckman-Coulter). An automated plate washer/stacker (ELx405/BioStak from BioTek Instruments) and a microplate reader (SpectraMax Plus from Molecular Devices) were used for conducting the SRB assay and determining A570 values for wells in the plates and the percentage of control values. Prior to SRB assays, cell viability was monitored by evaluation of microtiter plate wells. Dead cells detach and float while living cells remain attached to the bottom of the cell well.
SN-38 (Irinotecan; Sigma H0165, lot MKBQ4981) and Topotecan (Sigma T2705, lot 052M4728V) were purchased from SigmaAldrich. BNP1350 (lot KN-C192-135) and BNP7787 (lot 205001) were synthesized at BioNumerik Pharmaceuticals, Inc. (San Antonio, Tex.). BNP1350, SN38, and Topotecan were prepared as 2.5, 2.5, and 25 mM stocks in DMSO (ATCC, cell culture grade).
The sulforhodamine B (SRB) cytotoxicity assay was used to assess cell survival. Briefly, after the medium was decanted from individual plate wells, trichloroacetic acid (100 μL of 10.0 percent solution) was added to each well, and the plates were incubated at 4° C. for 1 hour. The plates were washed five times with water using an automated microplate washer (Model ELx405, Bio-Tek Instruments), SRB solution (100 μL of 0.4% SRB dissolved in 1.0 percent acetic acid) was added, and plates remained at room temperature for 15 minutes. The plates were then washed five times using acetic acid (1.0 percent), air dried, and bound dye was solubilized in Tris base (150 μL, 10 mM). Plates were agitated (gently) for 5 minutes and the absorbance values of the SRB dye-protein adduct at 570 nanometers (A570) were determined using an automated microtiter plate reader (SpectraMax Plus, Molecular Devices). IC50 values were extrapolated from dose response curves of the data using OriginLab Software.
For orientation: Sulforhodamine B stains cellular protein and so reports cell mass.

The subject of another series is beagle dogs. Particulars: dog, in vivo, iv.
For a further series, the system named is Fischer rats. Particulars: rat, in vivo, iv.

A word on the IC50: it is the midpoint of a concentration-inhibition curve.

Like-named read-outs stand apart in the source and are kept apart here.

Turning to `CC[C@@]1(O)C(=O)OCc2c1cc1n(c2=O)Cc2c-1nc1ccccc1c2CC[Si](C)(C)C` [Karenitecin, (4S)-4-ethyl-4-hydroxy-11-[2-(trimethylsilyl)ethyl]-1H-pyrano[3′:4′:6,7]indolizino[1,2-b]quinoline-3,14(4H,12H)-dione], in series [1], the “Tolerability of oral doses” value was “good tolerability”. Besides, the Lactone stability entry in series [2] is listed as “approximately 85%”. The IC50 in the series on JHOM2B Cell Line (2 hour drug exposure, average of Test 1 and Test 2, read-out: IC50, Average) was 0.0695 µM; in the series on JHOM2B Cell Line (2 hour drug exposure, read-out: IC50, Test 1 (2 replicate plates)), 0.061 ± 0.004 µM; in the series on JHOM2B Cell Line (2 hour drug exposure, read-out: IC50, Test 2 (3 replicate plates)), 0.078 ± 0.009 µM; in the series on JHOM2B Cell Line (read-out: IC50 values), 0.0695 µM. Also, the Toxicities observed entry in the series with beagle dogs and in the series on Fischer rats was “reversible myelosuppression (predominantly neutropenia)” each time.
